{"source": "paper PMC9551036", "about": "“A selective and orally bioavailable VHL-recruiting PROTAC achieves SMARCA2 degradation in vivo” (Nature Communications, 2022)", "test_system": "NCI-H1568 tumour xenograft", "assay": "NCI-H1568 xenograft tumour growth", "assay_type": "in vivo, mouse", "settings": "for Tumor volume: qd, individual animals; for TGI: NCI-H1568 xenograft, day 17", "procedure": "To establish subcutaneous tumours, mice were injected with 5 × 10^6 NCI-H1568 in PBS with 5% FCS or with 1 × 10^7 A549 cells in PBS with 5% FCS. Tumour diameters were measured with a caliper three times a week. The volume of each tumour (in mm^3) was calculated according to the formula [tumour volume = length × diameter^2 × π/6]. To monitor side effects of treatment, mice were inspected daily for abnormalities and body weight was determined daily after the start of treatment. Animals were sacrificed when the tumours reached a size of 1500 mm^3. Mice were randomised into treatment groups when the average tumour size reached ~210–220 mm^3. Group sizes were calculated individually for each tumour model based on tumour growth during model establishment experiments. A power analysis was performed using a sample size calculator (https://www.stat.ubc.ca/~rollin/stats/ssize/n2.html). For both models used in the study, 10 mice per group were used for each experiment. All administrations were dosed with 10 ml/kg (s.c. and oral). Control mice were dosed subcutaneously with 10% HP-β-CD in 50% Ringer solution and orally with 15% HP-β-CD, that means the control mouse treatment was corresponding to the solvent of the compounds. Compound 6 was dosed subcutaneously either in a d1-4 q3d, d6-8 q2d, d11-13 q2d treatment (Treatment 1) or a q3 or 4d treatment (Treatment 2).\nFor the evaluation of the statistical significance of tumour growth inhibition, a one-tailed nonparametric Mann-Whitney-Wilcoxon U-test was performed, based on the hypothesis that an effect would only be measurable in one direction (i.e. expectation of tumour inhibition but not tumour stimulation). Analysis was performed on the day indicated for each experiment. The p values obtained from the U-test were adjusted using the Bonferroni-Holm correction. By convention, p values ≤0.05 indicate significance of differences.", "note": "Values joined by “and” are separate entries in the source; they are usually repeats but may differ in a detail not shown here. Equal entries are not always repeated."}
{"smiles": "Cc1ncsc1-c1ccc([C@H](CCCCCN2CCC(c3ccc4c(c3)n(C3CCCC3)c3nc(=O)c5c(Br)cccc5n43)CC2)NC(=O)[C@@H]2C[C@@H](O)CN2C(=O)[C@@H](NC(=O)C2(F)CC2)C(C)(C)C)cc1", "note": "[compound 11]", "values": [{"measurement": "Tumor volume", "setting": "30 mg/kg, Day 8", "result": "349.89 mm3 and 236.13 mm3 and 336.08 mm3 and 316.23 mm3 and 320.2 mm3 and 407.12 mm3 and 452.47 mm3 and 403.17 mm3 and 435.99 mm3 and 529.54 mm3"}, {"measurement": "Tumor volume", "setting": "30 mg/kg, Day 10", "result": "411.87 mm3 and 252.06 mm3 and 344.92 mm3 and 322.48 mm3 and 362.94 mm3 and 435.47 mm3 and 364.71 mm3 and 506.51 mm3 and 466.2 mm3 and 503.81 mm3"}, {"measurement": "Tumor volume", "setting": "30 mg/kg, Day 13", "result": "502.78 mm3 and 248.86 mm3 and 360.62 mm3 and 361.29 mm3 and 382.81 mm3 and 518.2 mm3 and 443.39 mm3 and 514.01 mm3 and 521.41 mm3 and 705.33 mm3"}, {"measurement": "Tumor volume", "setting": "30 mg/kg, Day 15", "result": "496.47 mm3 and 228.27 mm3 and 504.98 mm3 and 354.71 mm3 and 479.1 mm3 and 517.42 mm3 and 432.15 mm3 and 457.1 mm3 and 602.75 mm3 and 762.29 mm3"}, {"measurement": "Tumor volume", "setting": "30 mg/kg, Day 17", "result": "650.01 mm3 and 225.32 mm3 and 455.8 mm3 and 341.13 mm3 and 487.7 mm3 and 435.26 mm3 and 381.47 mm3 and 461.01 mm3 and 569.17 mm3 and 686.8 mm3"}, {"measurement": "Tumor volume", "setting": "100 mg/kg, Day 8", "result": "173.57 mm3 and 358.5 mm3 and 211.9 mm3 and 263.4 mm3 and 447.51 mm3 and 347.41 mm3 and 368.98 mm3 and 478.34 mm3 and 381.06 mm3 and 544.49 mm3"}, {"measurement": "Tumor volume", "setting": "100 mg/kg, Day 10", "result": "207.49 mm3 and 318.53 mm3 and 166.3 mm3 and 272.68 mm3 and 439.29 mm3 and 419.1 mm3 and 347.63 mm3 and 427.12 mm3 and 399.48 mm3 and 552.76 mm3"}, {"measurement": "Tumor volume", "setting": "100 mg/kg, Day 13", "result": "196.26 mm3 and 416.62 mm3 and 227.85 mm3 and 452.58 mm3 and 404.81 mm3 and 268.98 mm3 and 439.16 mm3 and 468.07 mm3 and 536.7 mm3"}, {"measurement": "Tumor volume", "setting": "100 mg/kg, Day 15", "result": "224.98 mm3 and 458.86 mm3 and 260 mm3 and 554.09 mm3 and 490.11 mm3 and 263.77 mm3 and 439.21 mm3 and 536.89 mm3 and 543.63 mm3"}, {"measurement": "Tumor volume", "setting": "100 mg/kg, Day 17", "result": "221.9 mm3 and 357.16 mm3 and 324.28 mm3 and 608.34 mm3 and 580.36 mm3 and 307.51 mm3 and 368.83 mm3 and 566.83 mm3 and 599.71 mm3"}, {"measurement": "Tumor volume", "setting": "100 mg/kg, Day 20", "result": "230.91 mm3 and 452.52 mm3 and 264.14 mm3"}, {"measurement": "TGI", "setting": "30 mg/kg p.o. daily", "result": 64, "unit": "%"}, {"measurement": "TGI", "setting": "100 mg/kg p.o. daily", "result": 76, "unit": "%"}]}
